Measured values: patent publication US10844002B2, “Lipids and lipid compositions for the delivery of active agents” (priority 2014, dated 2020)
Several values for one entry are separate records, joined by “and”; a condition that tells them apart may be missing. Equal values may be shown once.

Columns and labels:
RSV F protein = assay type: in vivo; conditions: Table 4; BALB/c mice, intramuscular, 1 ng vA375 replicon in LNP, days 0 and 21
[1] = Encapsulation efficiency of RNA replicons (Quant-iT RiboGreen); assay type: physicochemical; conditions: LNP 40% cationic lipid, 10% DSPC, 48% cholesterol, 2% PEG-DMG; RNA replicon
Protocol: Briefly, lipids were dissolved in ethanol (2m1), a RNA replicon was dissolved in buffer (2 ml, 100 mM sodium citrate, pH 6) and these were mixed with 2 ml of buffer followed by 1 hour of equilibration. The mixture was then dialized overnight against 1×PBS. The resulting product contained liposomes, with ˜70-95% encapsulation efficiency.
The percentage of encapsulated RNA and RNA concentration were determined by Quant-iT RiboGreen RNA reagent kit (Invitrogen), following manufacturer's instructions. The ribosomal RNA standard provided in the kit was used to generate a standard curve. LNPs were diluted 10× or 100× in 1× TE buffer (from kit) before addition of the dye. Separately, LNPs were diluted 10× or 100× in 1× TE buffer containing 0.5% Triton X before addition of the dye (to disrupt the LNPs and thus to assay total RNA). Thereafter an equal amount of dye was added to each solution and then ˜180 μL of each solution after dye addition was loaded in duplicate into a 96 well tissue culture plate. The fluorescence (Ex 485 nm, Em 528 nm) was read on a microplate reader. All LNP formulations were dosed in vivo based on the encapsulated amount of RNA.

[2] = Characterization of LNP formulations: Z average particle diameter and polydispersity index; assay type: physicochemical; conditions: LNP formulation
From the text: The lipid nanoparticles have a size of about 1 to about 2,500 nm, about 1 to about 1,500 nm, about 1 to about 1,000 nm, in a sub-embodiment about 50 to about 600 nm, in a sub-embodiment about 50 to about 400 nm, in a sub-embodiment about 50 to about 250 nm, and in a sub-embodiment about 50 to about 150 nm. Unless indicated otherwise, all sizes referred to herein are the average sizes (diameters) of the fully formed nanoparticle, as measured by dynamic light scattering on a Malvern Zetasizer. The nanoparticle sample is diluted in phosphate buffered saline (PBS) so that the count rate is approximately 200-400 kcts. The data is presented as a weighted average of the intensity measure.

[3] = system: H1N1 influenza A strain, Ca107; assay: Immunogenicity in ferret models (Influenza): microneutralization; assay type: in vivo, ferrets; conditions: IM
Protocol: (§1) For immunization in ferrets, a lipid working solution was freshly prepared by dissolving 22.5 mg of Example 1, 5.9 mg of DSPC, 13.9 mg of Cholesterol and 4.0 mg of PEG2000-conjugated DMPE (cat #880150P, Avanti Polar Lipids, Inc.) in 10 ml ethanol. A 10 mL working solution of RNA was also prepared at a concentration of 0.125 mg/ml in 100 mM citrate buffer (pH 6). The working lipid and RNA solutions were heated at 37° C. for 5 min before being loaded into two 10 cc luer-lok syringes. […] The outlet from the T mixer was also FEP tubing separately, 10 mL of citrate buffer (pH 6) was loaded in a third 10 cc syringe which was connected to a separate piece of tubing. All three syringes were loaded on a syringe pump and driven at 1.0 ml/min. The tubing outlets were positioned to collect the mixtures in a 20 mL glass vial which was gently stirred using a stirring bar. All glass vials were baked at 250° C. for 12 hours prior to experiment to completely inactivate any RNase contaminant. At the end of mixing, the stir bar was taken out and the ethanol/aqueous solution was allowed to equilibrate to room temperature for 1 hour. After incubation, the ethanol/aqueous solution was loaded into a syringe, and mixed with equal volume of 100 mM citrate buffer (pH 6) using the aforementioned Tee-junction process. Next, LNPs were concentrated to 20 mL and dialyzed against 10-15 volumes of 1× PBS using by tangential flow filtration before recovering the final product. The TFF system and hollow fiber filtration membranes were purchased from Spectrum Labs (Rancho Dominguez) and were used according to the manufacturer's guidelines. Polysulfone hollow fiber filtration membranes with a 100 kD pore size cutoff and 8 cm^2 surface area were used. For in vitro and in vivo experiments formulations were diluted to the required RNA concentration with 1×. PBS.
(§2) A total of seven experimental groups with six animals per group (42 animals) were used in this study; two vaccine doses of each RNA formulation (Groups 2-5), two groups vaccinated with a non-adjuvated (H1N1 subunit) or an adjuvated (MF59/H1N1 subunit) commercially available H1N1 influenza subunit vaccine (Groups 6 and 7) and a mock vaccinated group (Group 1). The RNA test vaccines were derived from a recombinant DNA plasmid (pDNA) carrying an alphavirus genome in which the structural genes were replaced with the HA gene from the H1N1 influenza A strain, Ca107. The RNA was then formulated in either cationic oil-in-water emulsion (CNE) or LNP for delivery to host cells via intramuscular (IM) injection. RNA concentrations for each formulation study group were 15 and 45 mcg for CNE and 5 and 15 mcg for LNP. The H1N1 subunit vaccines were used at a HA subunit protein concentration of 15 mcg. Non-vaccinated animals were mock vaccinated with a vehicle control for the RNA test vaccines. All test vaccines were administered by IM injection on Study Days (SD) 0 followed with a booster vaccination on Study Day 56 (8 weeks post 1st immunization).
(§3) Table 5 summarizes Influenza microneutralization data and table 6 the haemagultanin inhibition (HAI) titers. The LNP formulation tested generated immune responses with as little as 5 μg of self-amplifying RNA, as determined by increased HA-specific neutralization and HAI titers.

[4] = system: H1N1 influenza A strain, Ca107; assay: Immunogenicity in ferret models (Influenza): haemagultanin inhibition (HAI) titers; assay type: in vivo, ferrets; conditions: IM
Protocol: as §1, §2, §3

[5] = 5 mcg RNA, Pre-bleed, per animal
[6] = 15 mcg RNA, Pre-bleed, per animal

## CCCCC/C=C\C/C=C\CCCCCCCCOc1ccc(OCCCCCCCC/C=C\C/C=C\CCCCC)c(COC(=O)CCCN(C)C)c1 [Example 1, 2,5-bis((9Z,12Z)-octadeca-9,12-dien-1-yloxy)benzyl 4-(dimethylamino)butanoate]
RSV F protein
  Log10(IgG titer), 1 ng RNA (RSV-F), 2 weeks post 2nd immunization: 4.43
[1]
  Encapsulation efficiency (RNA %): 96.6%
[2]; Z average particle diameter
  Zav (nm): 135.3 nm
[2]; polydispersity index
  polydispersity: 0.11
[3]; 5 mcg RNA, 4wp1, per animal
  Influenza microneutralization titer: 20 (2×) and 80 and 40 (2×) and 10
[3]; 5 mcg RNA, 4wp2, per animal
  Influenza microneutralization titer: 640 (2×) and >20480 (3×) and 320
[3]; 5 mcg RNA, 8wp1, per animal
  Influenza microneutralization titer: 20 (2×) and 40 (2×) and 10 and <10
[3]; [5]
  Influenza microneutralization titer: <10
[3]; 15 mcg RNA, 4wp1, per animal
  Influenza microneutralization titer: 160 (2×) and 320 and 80 (2×) and 40
[3]; 15 mcg RNA, 4wp2, per animal
  Influenza microneutralization titer: 640 (4×) and >20480 (2×)
[3]; 15 mcg RNA, 8wp1, per animal
  Influenza microneutralization titer: 40 (3×) and 80 (2×) and 20
[3]; [6]
  Influenza microneutralization titer: <10
[4]; 5 mcg RNA, 4wp1, per animal
  Influenza HAI titer: 20 (2×) and 80 and 40 (2×) and 10
[4]; 5 mcg RNA, 4wp2, per animal
  Influenza HAI titer: 640 (2×) and >20480 (3×) and 320
[4]; 5 mcg RNA, 8wp1, per animal
  Influenza HAI titer: 20 (2×) and 40 (2×) and 10 and <10
[4]; [5]
  Influenza HAI titer: <10
[4]; 15 mcg RNA, 4wp1, per animal
  Influenza HAI titer: 160 (2×) and 320 and 80 (2×) and 40
[4]; 15 mcg RNA, 4wp2, per animal
  Influenza HAI titer: 640 (4×) and >20480 (2×)
[4]; 15 mcg RNA, 8wp1, per animal
  Influenza HAI titer: 40 (3×) and 80 (2×) and 20
[4]; [6]
  Influenza HAI titer: <10
